“And” between values parts separate entries of the source, which are not always exact repeats. Equal entries are not always repeated. Where two headings read alike, the source gives them in different places.
Experiments:
[1] = target: SARS-CoV-2 nsp14 MTase (Severe acute respiratory syndrome coronavirus 2, UniProt P0DTD1); test: biochemical; format: biochemical; settings: for Hill slope: Table S1, dose-response curve, variable slope model
[2] = microsomes, 0.75 h, 10 µM, pH 7.4
[3] = for Plasma stability % of the parent compound after 120 min, Mouse: 10 μM
[4] = microsomes, 0.75 h, 10 µM, pH 7.4; remark: listed apart in the source
[5] = for Plasma stability % of the parent compound after 120 min, Human: 10 μM
[6] = tested on: SARS-CoV-2 strain hCoV-19/Czech Republic/NRL_6632_2/2020; test: microbe, parasite or virus in culture; format: cell-based; settings: Severe acute respiratory syndrome coronavirus 2; Calu-3 cell line; read-out: EC50 (antiviral effect)
[7] = target: human RNMT (Homo sapiens, UniProt O43148); test: Off-target inhibition of human RNMT; format: biochemical; settings: 25 μM concentration of inhibitor
Source text: Human cells rely on several MTases; therefore, it is necessary to assess the possible off-target effect. […]

[8] = in vitro; settings: human; for efflux ratio at 2 h, 10 µM: Caco-2; for Papp A→B at 2 h, 10 µM / Papp B→A at 2 h, 10 µM: Caco-2, pH 7.4
Protocol: (§1) 3.5. Caco-2 permeability assay
(§2) Transepithelial bi-directional transport of compounds (10 µM, pH 7.4/7.4) was tested on 21-day differentiated Caco-2 monolayers. Briefly, the cells were seeded at a density of 67 ,500 cells per 96-well plate insert (Millicell®, Merck KGaA, Darmstadt, Germany). They were left to differentiate for 21 days with medium exchange every 2–3 days. Prior to the experiment, the medium from both apical and basolateral well was exchanged for HBSS buffer (containing 10 mM HEPES and 25 mM glucose) and left to equilibrate for 30 min. Compound permeability was assayed by replacing pure HBSS with HBSS containing 10 μM compounds and 220 μM Lucifer yellow (LY) solution in an apical insert (A to B transport) or in a basolateral well (B to A transport). The tre ated cells were then returned to the incubator for 2 h at 37 °C. After that, samples were collected from both apical inserts and basolateral wells and analyzed using LC -MS/MS (SCIEX Triple Quad™ 7500 QTRAP® Ready). LC separation was done on Synergi 4µm Fusion 50 × 2 mm column (Phenomenex) using a water/acetonitrile gradient with 0.1% formic acid starting from 2 to 98% for 4.5 min.
(§3) The apparent permeability coefficient (Papp) was calculated from t he following equation: Papp = (dQ / dt) / C0 * A, where dQ/dt is the rate of absorption of the drug across the cells, C0 is the donor compartment concentration at time zero, and A is the area of the monolayer. Efflux ratio was expressed as (Papp B -A) / (Papp A-B). Recovery (%) was determined as (total compound mass i n donor and receiver compartments at the end of the incubation / initial compound mass in the donor compartment) x 100. The data represent means ± SD of two independent experiments performed in triplicate. […]
(§4) were used as control compounds.

[9] = tested on: Caco-2 monolayers; test: in vitro; settings: Caco-2
Protocol: as §1, §2, §3, §4

[10] = Table 1 and text, N.I., no inhibition
[11] = Table 1 and text, N.I., no inhibition, read-out: IC50
[12] = Table S1, read-out: IC50 (inhibitory activity)

human RNMT, sequence (O43148 whole entry): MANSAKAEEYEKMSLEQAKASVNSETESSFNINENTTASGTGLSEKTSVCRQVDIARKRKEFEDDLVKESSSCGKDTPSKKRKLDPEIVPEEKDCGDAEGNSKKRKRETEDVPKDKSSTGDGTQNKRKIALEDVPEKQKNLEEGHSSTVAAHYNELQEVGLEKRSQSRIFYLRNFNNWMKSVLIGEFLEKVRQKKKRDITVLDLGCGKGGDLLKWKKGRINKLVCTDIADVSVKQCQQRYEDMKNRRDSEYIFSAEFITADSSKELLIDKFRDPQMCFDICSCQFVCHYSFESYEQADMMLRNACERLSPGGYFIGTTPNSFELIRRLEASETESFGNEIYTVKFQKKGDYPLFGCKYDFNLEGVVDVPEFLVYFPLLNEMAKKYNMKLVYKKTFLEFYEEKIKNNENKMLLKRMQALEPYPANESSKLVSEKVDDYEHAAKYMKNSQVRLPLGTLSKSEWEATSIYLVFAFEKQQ

Q: For `COC(=O)c1cc(NC(=O)[C@H]2O[C@@H](n3cnc4c(N)ncnc43)[C@H](O)[C@@H]2O)ccc1F` [12f], which IC50 [1, 10] is on record?
A: The IC50 was “N.I”.

Q: For `Nc1ncnc2c1ncn2[C@@H]1O[C@H](CNC(=O)c2ccc3c(c2)OCCO3)[C@@H](O)[C@H]1O` [21k], which “inhibitory activity against nsp14 (in words)” value [1] is on record?
A: Its value is “significant decrease or complete loss of the inhibitory activity”.

Q: And the IC50 [1, 10]?
A: Its IC50 is “N.I”.

Q: With `Nc1ncnc2c1ncn2[C@@H]1O[C@H](C(=O)Nc2ccc3cccnc3c2)[C@@H](O)[C@H]1O` [12p] as the compound, how does the IC50 [1, 11] read?
A: Its IC50 is 4810 ± 2540 nM.

Q: And the Hill slope [1]?
A: The Hill slope was -1.45.

Q: And the IC50 [1, 12]?
A: The IC50 was 4810 nM.

Q: For `Cc1noc(C)c1-c1ccc(NC(=O)[C@H]2O[C@@H](n3cnc4c(N)ncnc43)[C@H](O)[C@@H]2O)cc1` [12j], which IC50 [1, 10] is on record?
A: Its IC50 is “N.I”.

Q: With `Cc1cc(=O)oc2cc(NC(=O)[C@H]3O[C@@H](n4cnc5c(N)ncnc54)[C@H](O)[C@@H]3O)ccc12` [12l] as the compound, how does the “Microsomal stability % of the parent compound after 45 min, Mouse” value [2] read?
A: Its value is 95 ± 5.0%.

Q: What about the “Plasma stability % of the parent compound after 120 min, Mouse” value [3] of the same compound?
A: Its value is 93 ± 2.7%.

Q: What about the “Microsomal stability % of the parent compound after 45 min, Human” value [4] of the same compound?
A: The value was 104 ± 4.1%.

Q: And the “Plasma stability % of the parent compound after 120 min, Human” value [5]?
A: Its value is 103 ± 3.3%.

Q: What about the EC50 [6] of the same compound?
A: Its EC50 is greater than 50000 nM.

Q: And the “inhibitory activity against RNMT” value [7]?
A: Its value is “None of the tested compounds exhibited any inhibitory activity”.

Q: What about the IC50 [1, 11] of the same compound?
A: Its IC50 is 360 ± 40 nM.

Q: What about the Hill slope [1] of the same compound?
A: Its Hill slope is -1.39.

Q: And the IC50 [1, 12]?
A: The IC50 was 364 nM.

Q: What about the efflux ratio at 2 h, 10 µM [8] of the same compound?
A: Its efflux ratio at 2 h, 10 µM is 3.4.

Q: What about the recovery at 2 h, 10 µM ([8]; Caco-2, Recovery (%) A-B) of the same compound?
A: Its recovery at 2 h, 10 µM is 85%.

Q: And the recovery at 2 h, 10 µM ([8]; Caco-2, Recovery (%) B-A)?
A: The recovery at 2 h, 10 µM was 83%.

Q: And the Papp A→B at 2 h, 10 µM [8]?
A: Its Papp A→B at 2 h, 10 µM is 3.1 ± 1.3 ×10⁻⁶ cm/s.

Q: What about the Papp B→A at 2 h, 10 µM [8] of the same compound?
A: The Papp B→A at 2 h, 10 µM was 10.7 ± 2.5 ×10⁻⁶ cm/s.

Q: What about the “Papp A-B” value [9] of the same compound?
A: The value was 3.1 ± 1.3 cm/s x 10-6.

Q: What about the “Papp B-A” value [9] of the same compound?
A: Its value is 10.7 ± 2.5 cm/s x 10-6.

Q: For `Nc1ncnc2c1ncn2[C@@H]1O[C@H](C(=O)Nc2ccc(-c3ccsc3)cc2)[C@@H](O)[C@H]1O` [12h], which IC50 [1, 10] is on record?
A: Its IC50 is “N.I”.

Q: For `Nc1ncnc2c1ncn2[C@@H]1O[C@H](CNS(=O)(=O)c2ccc3c(c2)OCCO3)[C@@H](O)[C@H]1O` [22k], which “inhibitory activity against nsp14 (in words)” value [1] is on record?
A: Its value is “significant decrease or complete loss of the inhibitory activity”.

Q: And the IC50 [1, 11]?
A: Its IC50 is 15400 ± 2550 nM.

Q: And the Hill slope [1]?
A: Its Hill slope is -1.55.

Q: For `Nc1ncnc2c1ncn2[C@@H]1O[C@H](C(=O)Nc2ccc3c(c2)OCCO3)[C@@H](O)[C@H]1O` [12k], which IC50 [1, 11] is on record?
A: The IC50 was 1800 nM and 1810 nM.

Q: And the Hill slope [1]?
A: The Hill slope was -1.01.

Q: And the IC50 [1, 12]?
A: Its IC50 is 1810 nM.

Q: Which IC50 [1, 11] does the source give for `Nc1ncnc2c1ncn2[C@@H]1O[C@H](C(=O)Nc2ccc3c(c2)NC(=O)CC3)[C@@H](O)[C@H]1O` [12o] here?
A: Its IC50 is 6550 ± 1440 nM.

Q: What about the Hill slope [1] of the same compound?
A: Its Hill slope is -0.91.

Q: And the IC50 [1, 12]?
A: The IC50 was 6550 nM.

Q: Which IC50 [1, 10] does the source give for `NC(=O)c1ccc(NC(=O)[C@H]2O[C@@H](n3cnc4c(N)ncnc43)[C@H](O)[C@@H]2O)cc1` [12b] here?
A: The IC50 was “N.I”.

Q: For `C[C@H]1O[C@@H](O[C@H]2[C@@H](O)C[C@H](O[C@H]3[C@@H](O)C[C@H](O[C@H]4CC[C@@]5(C)[C@H](CC[C@@H]6[C@@H]5C[C@@H](O)[C@]5(C)[C@@H](C7=CC(=O)OC7)CC[C@]65O)C4)O[C@@H]3C)O[C@@H]2C)C[C@H](O)[C@@H]1O` [Digoxin, reference compound], which recovery at 2 h, 10 µM ([8]; Caco-2, Recovery (%) A-B, Table S2, A to B transport) is on record?
A: The recovery at 2 h, 10 µM was 131%.

Q: And the recovery at 2 h, 10 µM ([8]; Caco-2, Recovery (%) B-A, Table S2, B to A transport)?
A: Its recovery at 2 h, 10 µM is 77%.

Q: With `Nc1ncnc2c1ncn2[C@@H]1O[C@H](C(=O)Nc2ccc3c(C(F)(F)F)cc(=O)oc3c2)[C@@H](O)[C@H]1O` [12m] as the compound, how does the “Microsomal stability % of the parent compound after 45 min, Mouse” value [2] read?
A: The value was 93 ± 9.4%.

Q: And the “Plasma stability % of the parent compound after 120 min, Mouse” value [3]?
A: The value was 67 ± 3.5%.

Q: And the “stability in mouse plasma (in words)” value ([3]; plasma)?
A: Its value is “unstable”.

Q: And the “Microsomal stability % of the parent compound after 45 min, Human” value [4]?
A: The value was 90 ± 9.1%.

Q: And the “Plasma stability % of the parent compound after 120 min, Human” value [5]?
A: The value was 20 ± 1.4%.

Q: And the “stability in human plasma (in words)” value ([5]; plasma)?
A: The value was “unstable”.

Q: What about the IC50 [1, 11] of the same compound?
A: Its IC50 is 1470 ± 140 nM.

Q: And the Hill slope [1]?
A: The Hill slope was -1.01.

Q: And the IC50 [1, 12]?
A: Its IC50 is 1470 nM.

Q: And the efflux ratio at 2 h, 10 µM [8]?
A: Its efflux ratio at 2 h, 10 µM is 4.1.

Q: And the recovery at 2 h, 10 µM ([8]; Caco-2, Recovery (%) A-B)?
A: Its recovery at 2 h, 10 µM is 96%.

Q: And the recovery at 2 h, 10 µM ([8]; Caco-2, Recovery (%) B-A)?
A: Its recovery at 2 h, 10 µM is 130%.

Q: What about the Papp A→B at 2 h, 10 µM [8] of the same compound?
A: Its Papp A→B at 2 h, 10 µM is 8 ± 2.9 ×10⁻⁶ cm/s.

Q: And the Papp B→A at 2 h, 10 µM [8]?
A: Its Papp B→A at 2 h, 10 µM is 32.9 ± 5.3 ×10⁻⁶ cm/s.

Q: And the “Papp A-B” value [9]?
A: Its value is 8.0 ± 2.9 cm/s x 10-6.

Q: What about the “Papp B-A” value [9] of the same compound?
A: Its value is 32.9 ± 5.3 cm/s x 10-6.

From publication PMC11352099 (RSC Medicinal Chemistry, 2024)
